In patent publication US20050187288A1, “Beta-lapachone and methods of treating cancer” (priority 2004, published 2005):
Values joined by “and” are separate entries in the source; they are usually repeats but may differ in a detail not shown here. Identical values can stand only once.

How the values were obtained:
[1] = Study 2B: dose-range-finding toxicity study, single intravenous administration in dogs; settings: two dogs
Description: The time interval between each dose was three to four days.
Whole blood samples (1 ml/sample) were also collected on each day of dose administration for toxicokinetics analysis.

[2] = Binding to human plasma proteins by equilibrium dialysis; assay type: in vitro ADME; settings: human, pooled human plasma; 2-25 μM, 37° C.; read-out: protein binding (converted)
Description: (§1) The plasma aliquots were incubated at 37° C. for 1 h, and then were dialyzed against PBS buffer at 37° C. for 4 h using Dianorm Equilibrium Dialysers.

[3] = system: human plasma proteins; assay: as above; assay type: in vitro ADME; settings: 2-25 μM, 37° C.
Description: as §1

[4] = Study 1B: dose-range-finding single dose intravenous toxicity study in rats
Description: In Study No. 1B, five groups of six adult Sprague-Dawley rats (three male and three female) were randomized to treatment groups and treated via intravenous infusion as shown in
Other observations included clinical signs, body weights and food consumption. On Day 8, animals were anesthetized with CO2 and blood for testing was collected by cardiocentesis, then animals were euthanized by CO2 asphyxiation and subjected to gross necropsy with histopathological evaluation performed on major organs (lungs, heart, liver, brain, spleen and kidneys).

[5] = system: 60 cancer cell lines; assay: NCI in vitro screen of 60 cancer cell lines, sulforhodamine B assay; assay type: cell-based; settings: Homo sapiens, 60 cell, read-out: LC50 (log10 molar concentration causing 50% lethality), mean across all cells (converted)
Description: The NCI screen includes cell lines isolated from leukemia, non-small cell lung cancer (NSCLC), colon, […] (CNS), melanoma, ovarian, renal, prostate and breast cancer tissues.
The NCI assays were performed under standardized conditions and use the sulforhodamine B assay as the endpoint. The NCI set of 60 lines included nine colon cancer cell lines (COLO 205, DLD-1, HCC-2998, HCT-116, HCT-15, HT29, KM12, KM20L2, and SW-620).
The NCI assays were performed under standardized conditions and use the sulforhodamine B assay as the endpoint. The NCI set of 60 lines included twelve non-small cell lung cancer cell lines (A549, EKVX, HOP-18, HOP-19, HOP-62, HOP-92, NCI-H226, NCI-H23, NCI-H322M, NCI-H460, NCI-H522, and LXFL 529), and three small cell lung cancer cell lines (DMS 114, DMS 273, AND SHP-77).

[6] = in vivo
[7] = Reversibility of binding to human plasma proteins; assay type: in vitro ADME; settings: pooled human plasma, dialyzed three times against fresh plasma, 37° C., read-out: fraction in plasma reversibly bound to plasma proteins
Description: The spiked plasma was incubated at 37° C. for 1 h, and then was dialyzed three times against fresh plasma aliquots at 37° C.

[8] = system: SK-OV-3; settings: human, 4 h
Description: Control plates received the same volume of DMSO alone. After a 4 hour exposure the drug was carefully removed, and drug-free medium could be added. […] Colonies of greater than 50 cells were scored as survivors. Cells were maintained at 37° C. in 5% CO2 in complete humidity.

CC1(C)CCC2=C(O1)c1ccccc1C(=O)C2=O [β-lapachone, 3,4-dihydro-2,2-dimethyl-2H-naphtho [1,2-b]pyran-5,6-dione]
total bilirubin levels ([1]; 45 mg/kg dose, predose 0.38 and 0.26): 0.66 mg/dL and 0.87 mg/dL | hemoglobin at end of study ([1]; 11-day study, declined from 14.9 and 13.5): 9.1 g/dL and 9.7 g/dL | fraction unbound at 4 h [2]: 0.07 | amount of free compound in human plasma [3]: approximately 7% | clinical signs ([4]; 60 mg/kg, 1-2 hours after dosing, resolved by Day 2): transient clinical signs | histopathological findings ([4]; 75 mg/kg group): Minimal to mild hepatocellular vacuolation and renal tubular epithelial pallor and attenuation | mortality and clinical signs ([4]; 30 or 45 mg/kg dose groups): No mortality or clinical signs of toxicity | hematology and serum chemistry values ([4]; all groups): generally unremarkable | NOEL ([4]; single one-hour intravenous dose at 3 mg/ml, male and female rats): 45 mg/kg | CC50 [5]: 8.51 µM | doses without significant toxicity ([6]; Sprague-Dawley (Hsd:SD) rats, Beagle dogs, rat and dog, iv, 4 weeks): less than 270 mg/m^2 | bone marrow suppression, gastrointestinal toxicity, alopecia [6]: no evidence of bone marrow suppression, gastrointestinal toxicity or alopecia | major organ toxicity (myelosuppression, hepatic, renal, neurotoxicity, cardiotoxicity) [6]: No evidence of major organ toxicity | fraction unbound at 10 μM [7]: ≤ 0.35 | CC50 [8]: 1.29 µM
